Patent publication US6683079B2, “3-(amino-or aminoalkyl) pyridinone derivatives and their use for the treatment of HIV related diseases” (Centre National de la Recherche Scientifique, priority 1998, dated 2004)

Tests used:
[1] = test system: HIV-1 strain IIIB; assay: Retrovirucidal effect on HIV-1 strain IIIB (Table 3); format: cell-based; conditions: pIC50=-log IC50, IC50 in M
Procedure: (§1) HIV-1 viral suspensions were obtained by coculture of MT4 cells and H9 cells chronically infected by HIV-ILai isolate. 200 μl of a cell supernatant containing viral particles (HIV-ILai: 100 TCID50) were incubated at room temperature with various concentrations of different inhibitors. After 3 hours, virions were washed through 0.02 μm anopore membrane in 1.5 mL Vectaspin tube (Whatman) for 10 minutes at 5 000 g. Each of the three subsequent washes was performed in the same conditions after the viral concentrate was refilled with 500 μL of RPMI medium. Then, the viral concentrate was readjusted to the initial volume with RPMI plus 10% foetal calf serum (FCS). The residual infectivity was assayed on P4 cells as described by CHARNEAU et al. (1994, J. Mol. Biol., 241, 651-662). Briefly, P4 cells were plated using 100 μL of DMEM medium plus 10% FCS in 96 plate multi-wells at 20×10^5 cells per mL. After overnight incubation at 37° C., the supernatant was discarded and the viral preparation (200 μL) was added. One day later the wells were washed three times in PBS. Each well was refilled with 200 μL of a reaction buffer containing 50 mM Tris-HCl pH 8.5, 100 mM 2-mercaptoethanol, 0.05% Triton X-100 and 5 mM 4-methylumbelliferyl β-D-galactopyranoside (MUG). After 3 hours at 37° C., the level of the reaction was measured in a fluorescence microplate reader.
(§2) The retrovirucidal effect of each pyridinone derivative listed in table 3 has been assayed according to the teachings of example 2, excepted that the anti-viral effect has been tested on the two following HIV-1 strains:
a) HIV-1 strain IIIB (see example 2);

[2] = test system: HIV-1 strain 103 N; assay: Retrovirucidal effect on HIV-1 strain 103 N (Table 3); format: cell-based; conditions: HIV-1 strain 103N (RT Lys-103 to Asn mutant); pIC50=-log IC50, IC50 in M
Procedure: as §1, §2
b) HIV-1 strain 103 N which is a mutant strain bearing a point mutation in the reverse transcriptase gene leading to an enzyme wherein the initial Lys-103 residue is replaced for a Asn residue.
The HIV-1 103 N strain has also been described by SAHLBERG et al.,(1998, Antiviral Res., 37 (3): ASS) and BALZARiNI et al. (1996, Antimicrobial Agents and Chemotherapy, 40 (6): 1454-1466).

Structure (SMILES) | HIV1 pIC50 strain IIIB [1] | HIV1 pIC50 strain 103N [2]
CCCCNc1c(Cc2cc(C)cc(C)c2)c(CC)c(C)[nH]c1=O [Compound 69] | 6.891 | 5.655
CCCc1c(C)[nH]c(=O)c(N(C)C)c1Cc1cc(C)cc(C)c1 [Compound 71] | 7.777 | 7.049
CCc1c(C)[nH]c(=O)c(NCC(C)C)c1Cc1cc(C)cc(C)c1 [Compound 72] | 7.079 | <4
CCc1c(C)[nH]c(=O)c(N)c1C(OC)c1cc(C)cc(C)c1 (centres unmarked) [Compound 73] | 8.027 | 6.92
CCc1c(C)[nH]c(=O)c(N)c1Cc1ccnc2ccccc12 [Compound 74] | <4 | <4
CCc1c(C)[nH]c(=O)c(N(C)C)c1Cc1ccnc2ccccc12 [Compound 75] | 5.252 | 4.132
Cc1cc(C)cc(Cc2cc(CCC(C)C)[nH]c(=O)c2N)c1 [Compound 76] | <5.494 | <4
Cc1cc(C)cc(Cc2cc(CCC(C)C)[nH]c(=O)c2N(C)C)c1 [Compound 77] | 5.827 | <4
CCc1c(C)[nH]c(=O)c(N(C)CCOC)c1Cc1cc(C)cc(C)c1 [Compound 78] | 8.678 | 7.128
CCc1c(C)[nH]c(=O)c(N(C)C(C)C)c1Cc1cc(C)cc(C)c1 [Compound 79] | 6.987 | 5.47
CCc1c(C)[nH]c(=O)c(N)c1CNCc1ccccc1 [Compound 80] | <4 | <4
CCNc1c(Cc2cc(C)cc(C)c2)c(CC)c(C)[nH]c1=O [Compound 81] | 7.866 | 6.444
CCCNc1c(Cc2cc(C)cc(C)c2)c(CC)c(C)[nH]c1=O [Compound 82] | 7.735 | 5.813
CCc1c(C)[nH]c(=O)c(N)c1CNCc1cccc(C)c1 [Compound 83] | <4.033 | <4
CCc1c(C)[nH]c(=O)c(N)c1Cc1nccn1C [Compound 84] | <4 | <4
Cc1cccc(Cc2c(C)c(C)[nH]c(=O)c2N)c1 [Compound 85] | 4.954 | <4
Cc1cccc(Cc2c(C)c(C)[nH]c(=O)c2N(C)C)c1 [Compound 86] | 7.863 | 5.936
CCc1c(C)[nH]c(=O)c(N)c1C(=O)c1cccc(C)c1 [Compound 87] | 6.46 | 5.653
Cc1cccc(C(=O)c2c(C)c(C)[nH]c(=O)c2N(C)C)c1 [Compound 96] | 7.824 | 6.37
CCc1c(C)[nH]c(=O)c(N)c1CN(C)Cc1ccccc1 [Compound 97] | <4 | <4
CCc1cccc(Cc2c(CC)c(C)[nH]c(=O)c2N)c1 [Compound 98] | 5.358 | 4.978
CCc1cccc(Cc2c(CC)c(C)[nH]c(=O)c2N(C)C)c1 [Compound 99] | 8.569 | 6.718
Cc1cc(C)cc(Cc2cc(C)[nH]c(=O)c2N)c1 [Compound 100] | 4.871 | <4
Cc1cc(C)cc(Cc2cc(C)[nH]c(=O)c2N(C)C)c1 [Compound 101] | 6.341 | 4.25
CCc1c(C)[nH]c(=O)c(N(C)C)c1CN(C)Cc1ccccc1 [Compound 102] | 4.369 | <4
CCCc1cccc(Cc2c(CC)c(C)[nH]c(=O)c2N(C)C)c1 [Compound 104] | 8 | 7.058
CCc1c(C)[nH]c(=O)c(N(C)C)c1Cc1cccc(OC)c1 [Compound 121] | 8.469 | 6.948
CCc1c(C)[nH]c(=O)c(N(C)CCCCCO)c1Cc1cc(C)cc(C)c1 [Compound 123] | 8.444 | 6.918

Structure (SMILES) | HIV1 pIC50 strain IIIB [1] | HIV1 pIC50 strain 103N [2]
CCc1c(C)[nH]c(=O)c(N(C)C(C)COC)c1Cc1cc(C)cc(C)c1 (centres unmarked) [Compound 129] | 8.398 | 7.057
CCc1c(C)[nH]c(=O)c(N(C)CCOC)c1Cc1cccc(C)c1 [Compound 136] | 9 | 6.996
CCc1c(C)[nH]c(=S)c(N(C)C)c1C(=O)c1cc(C)cc(C)c1 [Compound 138] | 8.215 | 7.401
CCc1c(C)[nH]c(=O)c(N(C)CCO)c1Cc1cccc(C)c1 [Compound 145] | 8.42 | 6.028
CCc1c(C)[nH]c(=O)c(N(C)C)c1Sc1cc(C)cc(C)c1 [Compound 149] | 8.959 | 7.883
CCc1c(C)[nH]c(=O)c(N(C)CCCCCO)c1Cc1cccc(C)c1 [Compound 154] | 8.009 | 6.262
CCc1c(C)[nH]c(=O)c(N(C)C)c1C(=O)c1ccc(C)o1 [Compound 158] | 8.041 | 6.625
CCc1c(C)[nH]c(=O)c(N(C)C)c1Sc1cccc(C)c1 [Compound 160] | 8.678 | 7.177
CCc1c(C)[nH]c(=O)c(N(C)CCOC)c1Cc1cccc(C(F)(F)F)c1 [Compound 161] | 7.821 | 5.814
CCc1c(C)[nH]c(=O)c(N(C)C)c1COc1cccc(C)c1 [Compound 162] | 6.418 | 5.026
CCc1c(C)[nH]c(=O)c(N(C)C)c1CNc1cccc(C)c1 [Compound 163] | 5.596 | 4.236
CCc1c(C)[nH]c(=O)c(N(C)CC=C(C)C)c1Cc1cccc(C)c1 [Compound 164] | 7.818 | 6.505
CCc1c(C)[nH]c(=O)c(N(C)C)c1C(O)Cc1cccc(C)c1 (centres unmarked) [Compound 165] | 4.354 | <4
CCc1c(C)[nH]c(=O)c(N(C)C)c1CSc1cccc(C)c1 [Compound 166] | 5.693 | 4.518
CCc1c(C)[nH]c(=O)c(N(C)C)c1CNc1ccc(C#N)cc1 [Compound 167] | 6.338 | 5.828
CCc1c(C)[nH]c(=O)c(N)c1C(=O)c1ccc(OC)c(C)c1 [Compound 168] | 4.525 | 4.806
CCc1c(C)[nH]c(=O)c(N(C)C)c1C(=O)c1ccc(OC)c(C)c1 [Compound 169] | 7.101 | 5.771
CCc1c(C)[nH]c(=O)c(N(C)C)c1[S+]([O-])c1cc(C)cc(C)c1 (centres unmarked) [Compound 170] | 8.553 | 7.224
CCc1c(C)[nH]c(=O)c(N(C)C)c1CNc1ncccn1 [Compound 171] | 5.895 | 4.74
Cc1cc(C)cc(Cc2c3c([nH]c(=O)c2N)CCCC3)c1 [Compound 172] | 6.419 | 4.903
Cc1cc(C)cc(Cc2c3c([nH]c(=O)c2N(C)C)CCCC3)c1 [Compound 173] | 8.086 | 6.489
CCc1c(C)[nH]c(=O)c(N(C)C)c1C(=O)c1cccc(Br)c1 [Compound 174] | 8.921 | 7.68
CCc1c(C)[nH]c(=O)c(N(C)CCOC)c1C(=O)c1cccc(C)c1 [Compound 175] | 8.921 | 7.717
CCc1c(C)[nH]c(=O)c(N(C)C)c1Nc1cccc(C)c1 [Compound 176] | 8.432 | 6.436
CCc1c(C)[nH]c(=O)c(N)c1C(=O)c1cccs1 [Compound 177] | 5.106 | <4
CCc1c(C)[nH]c(=O)c(N(C)C)c1C(=O)c1cccs1 [Compound 178] | 7.873 | 6.461
CCc1c(C)[nH]c(=O)c(NC)c1C(=O)c1cccc(Br)c1 [Compound 179] | 8.42 | 7.182
